Assay results taken from publication PMC9706575 (Journal of Medicinal Chemistry, 2022).

Key:
[1] = mouse, in vivo, iv
targefrin = assay: ITC; reverse titration: 200 μM protein in the syringe, 20 injections of 2.5 μL into 10 μM compound in the cell; 25 mM Tris pH 7.5, 150 mM NaCl, 1% DMSO, 25 °C

Chain of ephrin type-A receptor 2 ligand-binding domain (P29317 27-200): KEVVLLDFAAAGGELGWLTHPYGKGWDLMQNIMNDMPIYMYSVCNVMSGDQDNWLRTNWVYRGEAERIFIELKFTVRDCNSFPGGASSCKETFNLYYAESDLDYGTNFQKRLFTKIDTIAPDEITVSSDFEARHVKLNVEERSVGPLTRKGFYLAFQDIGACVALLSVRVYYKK

Molecule	Body weight (g), Friday [1]	Body weight (g), Thursday [1]	Body weight (g), Wednesday [1]	Kd (targefrin)	dH (targefrin)
CC(=O)O[C@H]1C(=O)[C@@]2(C)[C@H]([C@H](OC(=O)c3ccccc3)[C@]3(O)C[C@H](OC(=O)[C@H](O)[C@@H](NC(=O)c4ccccc4)c4ccccc4)C(C)=C1C3(C)C)[C@]1(OC(C)=O)CO[C@@H]1C[C@@H]2O [PTX, paclitaxel]	22.11 g	21.95 g	21.85 g		
ephrin type-A receptor 2 ligand-binding domain (from UniProt P29317 27-200) (domain or fragment)				21.7 nM	-20.2 kcal/mol
